# Results as given in patent US7598382B2, “Aryl substituted imidazoquinolines” (Coley Pharmaceutical Group, Inc., priority 2002, dated 2009).
row,melting point,Structure (SMILES)
1,220 to 221 °C,"CCOCc1nc2c(N)nc3cc(-c4ccncc4)ccc3c2n1CC(C)(C)O [Example 127, 1-[4-Amino-2-ethoxymethyl-7-(pyridin-4-yl)-1H-imidazo[4,5-c]quinolin-1-yl]-2-methylpropan-2-ol]"
2,> 250 °C,"CCOCc1nc2c(N)nc3cc(-c4cn[nH]c4)ccc3c2n1CC(C)(C)O [Example 128, 1-[4-Amino-2-ethoxymethyl-7-(1H-pyrazol-4-yl)-1H-imidazo[4,5-c]quinolin-1-yl]-2-methylpropan-2-ol]"
3,216.5 to 217.5 °C,"CCOCc1nc2c(N)nc3cc(-c4cccc(C(=O)N5CCCC5)c4)ccc3c2n1CC(C)(C)O [Example 129, {3-[4-Amino-2-ethoxymethyl-1-(2-hydroxy-2-methylpropyl)-1H-imidazo[4,5-c]quinolin-7-yl]phenyl}pyrrolidin-1-ylmethanone]"
4,152 to 154 °C,"CCOCc1nc2c(N)nc3cc(-c4cccc(C(=O)N5CCOCC5)c4)ccc3c2n1CC(C)(C)O [Example 130, {3-[4-Amino-2-ethoxymethyl-1-(2-hydroxy-2-methylpropyl)-1H-imidazo[4,5-c]quinolin-7-yl]phenyl}morpholin-4-ylmethanone]"
5,211 to 212 °C,"CCOCc1nc2c(N)nc3cc(-c4ccccc4)ccc3c2n1CC(C)(C)O [Example 131, 1-(4-Amino-2-ethoxymethyl-7-phenyl-1H-imidazo[4,5-c]quinolin-1-yl)-2-methylpropan-2-ol]"
6,188 to 190 °C,"CCOCc1nc2c(N)nc3cc(-c4cncc(CO)c4)ccc3c2n1CC(C)(C)O [Example 133, 1-[4-Amino-2-ethoxymethyl-7-(5-hydroxymethylpyridin-3-yl)-1H-imidazo[4,5-c]quinolin-1-yl]-2-methylpropan-2-ol]"
7,156 to 156.5 °C,"CCOCc1cncc(-c2ccc3c(c2)nc(N)c2nc(COCC)n(CC(C)(C)O)c23)c1 [Example 134, 1-[4-Amino-2-ethoxymethyl-7-(5-ethoxymethylpyridin-3-yl)-1H-imidazo[4,5-c]quinolin-1-yl]-2-methylpropan-2-ol]"
8,> 250 °C,"CCOCc1nc2c(N)nc3cc(-c4cccc(C(=O)O)c4)ccc3c2n1CC(C)(C)O [Example 135, 3-[4-Amino-2-ethoxymethyl-1-(2-hydroxy-2-methylpropyl)-1H-imidazo[4,5-c]quinolin-7-yl]benzoic acid]"
9,226 to 227 °C,"COCCc1nc2c(N)nc3cc(-c4ccccc4)ccc3c2n1CC(C)(C)O [Example 136, 1-[4-Amino-2-(2-methoxyethyl)-7-phenyl-1H-imidazo[4,5-c]quinolin-1-yl]-2-methylpropan-2-ol]"
10,233 to 234 °C,"COCCc1nc2c(N)nc3cc(-c4ccsc4)ccc3c2n1CC(C)(C)O [Example 137, 1-[4-Amino-2-(2-methoxyethyl)-7-(thiophen-3-yl)-1H-imidazo[4,5-c]quinolin-1-yl]-2-methylpropan-2-ol]"
11,158 to 160 °C,"COCCc1nc2c(N)nc3cc(-c4cccnc4)ccc3c2n1CC(C)(C)O [Example 138, 1-[4-Amino-2-(2-methoxyethyl)-7-(pyridin-3-yl)-1H-imidazo[4,5-c]quinolin-1-yl]-2-methylpropan-2-ol]"
12,212 to 213 °C,"COCCc1nc2c(N)nc3cc(-c4cccc(CO)c4)ccc3c2n1CC(C)(C)O [Example 140, 1-[4-Amino-7-(3-hydroxymethylphenyl)-2-(2-methoxyethyl)-1H-imidazo[4,5-c]quinolin-1-yl]-2-methylpropan-2-ol]"
13,210 to 211 °C,"COCCc1nc2c(N)nc3cc(-c4cncc(CO)c4)ccc3c2n1CC(C)(C)O [Example 141, 1-[4-Amino-7-(5-hydroxymethylpyridin-3-yl)-2-(2-methoxyethyl)-1H-imidazo[4,5-c]quinolin-1-yl]-2-methylpropan-2-ol]"
14,245 to 247 °C,"CCc1nc2c(N)nc3cc(-c4cccnc4)ccc3c2n1CC(C)(C)O [Example 142, 1-[4-Amino-2-ethyl-7-(pyridin-3-yl)-1H-imidazo[4,5-c]quinolin-1-yl]-2-methylpropan-2-ol]"
15,> 250 °C,"CCc1nc2c(N)nc3cc(-c4ccncc4)ccc3c2n1CC(C)(C)O [Example 143, 1-[4-Amino-2-ethyl-7-(pyridin-4-yl)-1H-imidazo[4,5-c]quinolin-1-yl]-2-methylpropan-2-ol]"
16,207 to 208 °C,"COCCc1nc2c(N)nc3cc(-c4cccnc4)ccc3c2n1CC(C)C [Example 145, 2-(2-Methoxyethyl)-1-(2-methylpropyl)-7-(pyridin-3-yl)-1H-imidazo[4,5-c]quinolin-4-amine]"
17,202 to 204 °C,"COCCc1nc2c(N)nc3cc(-c4cncc(CO)c4)ccc3c2n1CC(C)C [Example 146, {5-[4-Amino-2-(2-methoxyethyl)-1-(2-methylpropyl)-1H-imidazo[4,5-c]quinolin-7-yl]pyridin-3-yl}methanol]"
18,217 to 218 °C,"CCOCc1nc2c(N)nc3ccc(C=Cc4ccccc4)cc3c2n1CC(C)(C)O [Example 147, 1-(4-Amino-2-ethoxymethyl-8-styryl-1H-imidazo[4,5-c]quinolin-1-yl)-2-methylpropan-2-ol]"

row,melting point,Structure (SMILES)
1,222 to 223 °C,"CCOCc1nc2c(N)nc3ccc(-c4cccnc4)cc3c2n1CC(C)(C)O [Example 148, 1-[4-Amino-2-ethoxymethyl-8-(pyridin-3-yl)-1H-imidazo[4,5-c]quinolin-1-yl]-2-methylpropan-2-ol]"
2,230 to 232 °C,"CCOCc1nc2c(N)nc3ccc(-c4cncc(CO)c4)cc3c2n1CC(C)(C)O [Example 150, 1-[4-Amino-2-ethoxymethyl-8-(5-hydroxymethylpyridin-3-yl)-1H-imidazo[4,5-c]quinolin-1-yl]-2-methylpropan-2-ol]"
3,175 to 176 °C,"CCOCc1nc2c(N)nc3ccc(CCc4ccccc4)cc3c2n1CC(C)(C)O [Example 151, 1-(4-Amino-2-ethoxymethyl-8-phenethyl-1H-imidazo[4,5-c]quinolin-1-yl)-2-methylpropan-2-ol]"
4,167 to 168.5 °C,"CCOCc1nc2c(N)nc3cc(-c4ccccc4)ccc3c2n1CCCCN1CCCS1(=O)=O [Example 152, 1-[4-(1,1-Dioxidoisothiazolidin-2-yl)butyl]-2-ethoxymethyl-7-phenyl-1H-imidazo[4,5-c]quinolin-4-amine]"
5,171 to 173 °C,"CCOCc1nc2c(N)nc3cc(-c4cccnc4)ccc3c2n1CCCCN1CCCS1(=O)=O [Example 153, 1-[4-(1,1-Dioxidoisothiazolidin-2-yl)-butyl]-2-ethoxymethyl-7-(pyridin-3-yl)-1H-imidazo[4,5-c]quinolin-4-amine]"
6,186 to 187.5 °C,"CCOCc1nc2c(N)nc3cc(-c4ccncc4)ccc3c2n1CCCCN1CCCS1(=O)=O [Example 154, 1-[4-(1,1-Dioxidoisothiazolidin-2-yl)-butyl]-2-ethoxymethyl-7-(pyridin-4-yl)-1H-imidazo[4,5-c]quinolin-4-amine]"
7,184.5 to 186 °C,"CCOCc1nc2c(N)nc3cc(-c4cncc(CO)c4)ccc3c2n1CCCCN1CCCS1(=O)=O [Example 155, (5-{4-Amino-1-[4-(1,1-dioxidoisothiazolidin-2-yl)butyl]-2-ethoxymethyl-1H-imidazo[4,5-c]quinolin-7-yl}pyridin-3-yl)methanol]"
8,158 to 161 °C,"CCOCc1nc2c(N)nc3cc(-c4cccc(CO)c4)ccc3c2n1CCCCN1CCCS1(=O)=O [Example 156, (5-{4-Amino-1-[4-(1,1-dioxidoisothiazolidin-2-yl)butyl]-2-ethoxymethyl-1H-imidazo[4,5-c]quinolin-7-yl}phenyl)methanol]"
9,117 to 119 °C,"CCOCc1nc2c(N)nc3cc(-c4cccnc4)ccc3c2n1CCCCNC(=O)OC(C)(C)C [Example 157, tert-Butyl {4-[4-amino-2-ethoxymethyl-7-(pyridin-3-yl)-1H-imidazo[4,5-c]quinolin-1-yl]butyl}carbamate]"
10,136 to 138 °C,"CCCc1nc2c(N)nc3cc(-c4cccnc4)ccc3c2n1CCCCNC(=O)OC(C)(C)C [Example 158, tert-Butyl {4-[4-amino-2-propyl-7-(pyridin-3-yl)-1H-imidazo[4,5-c]quinolin-1-yl]butyl}carbamate]"
11,181 to 182 °C,"CCOCc1nc2c(N)nc3cc(-c4cccnc4)ccc3c2n1CC1COC(C)(C)O1 (stereo not drawn) [Example 159, 1-[(2,2-Dimethyl-1,3-dioxolan-4-yl)methyl]-2-ethoxymethyl-7-(pyridin-3-yl)-1H-imidazo[4,5-c]quinolin-4-amine]"
12,219 to 220 °C,"CCOCc1nc2c(N)nc3cc(-c4ccc(CO)cc4)ccc3c2n1CC1COC(C)(C)O1 (stereo not drawn) [Example 160, 1-[(2,2-Dimethyl-1,3-dioxolan-4-yl)methyl]-2-ethoxymethyl-7-(4-hydroxymethylphenyl)-1H-imidazo[4,5-c]quinolin-4-amine]"
13,168 to 170 °C,"CCOCc1nc2c(N)nc3cc(-c4ccccc4)ccc3c2n1CC1COC(C)(C)O1 (stereo not drawn) [Example 161, 1-[(2,2-Dimethyl-1,3-dioxolan-4-yl)methyl]-2-ethoxymethyl-7-phenyl-1H-imidazo[4,5-c]quinolin-4-amine]"
14,218 to 220 °C,"CCOCc1nc2c(N)nc3cc(-c4cccnc4)ccc3c2n1CC(O)CO (stereo not drawn) [Example 162, 3-[4-Amino-2-ethoxymethyl-7-(pyridin-3-yl)-1H-imidazo[4,5-c]quinolin-1-yl]propane-1,2-diol]"
15,146 to 147 °C,"CCOCc1nc2c(N)nc3cc(-c4ccccc4)ccc3c2n1CCCOC [Example 163, 2-Ethoxymethyl-1-(3-methoxypropyl)-7-phenyl-1H-imidazo[4,5-c]quinolin-4-amine]"
16,151 to 152 °C,"CCOCc1nc2c(N)nc3cc(-c4cccnc4)ccc3c2n1CCCOC [Example 164, 2-Ethoxymethyl-1-(3-methoxypropyl)-7-(pyridin-3-yl)-1H-imidazo[4,5-c]quinolin-4-amine]"
17,225 to 226 °C,"CCOCc1nc2c(N)nc3cc(-c4ccncc4)ccc3c2n1CCCOC [Example 165, 2-Ethoxymethyl-1-(3-methoxypropyl)-7-(pyridin-4-yl)-1H-imidazo[4,5-c]quinolin-4-amine]"
18,228 to 229 °C,"CCOCc1nc2c(N)nc3cc(-c4ccc(CO)cc4)ccc3c2n1CCCOC [Example 166, 2-Ethoxymethyl-1-(3-methoxypropyl)-7-(4-hydroxymethylphenyl)-1H-imidazo[4,5-c]quinolin-4-amine]"
